Measured values reported in ChEMBL document CHEMBL1147267, “New strongylophorines from the Okinawan marine sponge Petrosia (Strongylophora) corticata” (J Nat Prod, 2003).

Tested on: HeLa
Assay: Cytotoxicity against human HeLa cells
Format: functional, cell-based

`COc1ccc2c(c1)C[C@H]1[C@]3(C)CC[C@@H]4[C@](C)(CCC[C@]4(C)C(=O)O)[C@H]3CC[C@]1(C)O2` [Strongylophorine-1] and `C[C@]12CCC[C@](C)(C(=O)O)[C@@H]1CC[C@]1(C)[C@@H]2CC[C@]2(C)Oc3ccc(O)cc3C[C@@H]12` [Strongylophorin-3] are within 1.5-fold of each other in IC50: 49.1 µM for the first, 45.2 µM for the second.

First: C[C@]12CCC[C@](C)(C=O)[C@@H]1CC[C@]1(C)[C@@H]2CC[C@]2(C)Oc3ccc(O)cc3C[C@@H]12 [Strongylophorin-4]
Second: CC1(C)CCC[C@]2(C)[C@H]3CC[C@]4(C)Oc5ccc(O)cc5C[C@H]4[C@]3(C)CC[C@@H]12 [Strongylophorin-22]
The IC50 of the first is 1.9-fold higher: 50.5 µM for the first, 26.6 µM for the second. The second is the more potent here.

Going from `CC1(C)CCC[C@@]2(CO)[C@H]1CC[C@]1(C)[C@@H]2CC[C@]2(C)Oc3ccc(O)cc3C[C@@H]12` [Strongylophorin-23] to `CC1(C)CCC[C@@]2(C=O)[C@H]1CC[C@]1(C)[C@@H]2CC[C@]2(C)Oc3ccc(O)cc3C[C@@H]12` [Strongylophorine-24], the IC50 rises from 62 µM to greater than 100 µM.

For `C[C@@]12CC[C@@H]3[C@]4(CCC[C@]3(C)C(=O)OC4)[C@H]1CC[C@]1(C)Oc3ccc(O)cc3C[C@@H]21` [STRONGYLOPHORIN 2], the IC50 was greater than 100 µM.
